Measured values reported in US20240166649A1, “DIHYDROPYRIMIDINE COMPOUND, PREPARATION METHOD THEREFOR AND APPLICATION THEREOF” (Shanghai Visonpharma Co., Ltd., priority 2021, published 2024).

Columns and labels:
[1] = system: HBV (hepatitis B virus) in HepG2.2.15 cells; assay: Cell-based anti-viral activity assay (HBV DNA in supernatant by quantitative PCR); conditions: 120 h, anti-HBV activity, HepG2.2.15 cells, 5 days, read-out: EC50 (HepG2.2.15)
In short: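 HepG2.2.15 cells (stably carrying HBV genome) treated with 3.16-fold compound dilutions, final 1% DMSO, for 5 days at 37 °C. Supernatant HBV DNA quantified by qPCR against a standard curve; % inhibition normalised to DMSO and high-concentration reference compound wells.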

[2] = Cytotoxicity assay (CellTiter Glo); format: cell-based; conditions: human; HepG2.2.15 cells, five days post treatment
Procedure: The Invention Determined Cytotoxicity of the Compounds Against HepG2.2.15 Cells (Table 2)
HepG2.2.15 cells were seeded into 96-well plates (8000 cells per well) and cell viability was measured by the addition of 60 μL of CellTiter Glo reagent (Promega) five days post treatment with the compounds. Cell plates with CellTiter Glo added were shaken on a plate shaker for 20 min and then the chemiluminescence signal was stabilized at room temperature for 10 min. Chemiluminescence values were read using a microplate reader (Bio-TeK SYNERGY NEO2).
The concentration corresponding to 50% cytotoxicity (CC50) was fitted by graphpad prism software. The cytotoxicity was calculated by the formula: % Cytotoxicity=100−(chemiluminescence value of sample Well −average chemiluminescence value of blank medium column)/(average chemiluminescence value of DMSO column −average chemiluminescence value of blank medium column)*100

Row | Compound | EC50 [1] | CC50 at 5 days [2]
1 | CCOC(=O)C1=C(CN2CCN3C(=O)N(C45CC(COC)(C4)C5)C[C@@H]3[C@H]2C(=O)O)NC(c2nccs2)=N[C@H]1c1cccc(F)c1C [Compound 47, (8S,8aR)-7-(((S)-5-(Ethoxycarbonyl)-6-(3-Fluoro-2-Methylphenyl)-2-(Thiazol-2-Yl)-3,6-Dihydropyrimidin-4-Yl)Methyl)-2-(3-(Methoxymethyl)Bicyclo[1.1.1]Pentan-1-Yl)-3-Oxooctahydroimidazo[1,5-a]Pyrazine-8-Carboxylic Acid] | 18 nM | > 50 µM
2 | CCOC(=O)C1=C(CN2CCN3C(=O)N(C45CC(CF)(C4)C5)C[C@@H]3C2)NC(c2nccs2)=N[C@H]1c1cccc(F)c1C [Compound 18, Ethyl (S)-4-(3-Fluoro-2-Methylphenyl)-6-(((S)-2-(3-(Fluoromethyl)Bicyclo[1.1.1]Pentan-1-Yl)-3-Oxohexahydroimidazo[1,5-a]Pyrazin-7(1H)-Yl)Methyl)-2-(Thiazol-2-Yl)-1,4-Dihydropyrimidine-5-Carboxylate] | 3 nM | > 50 µM
3 | CCOC(=O)CC12CC(N3C[C@@H]4[C@@H](COC)N(CC5=C(C(=O)OCC)[C@H](c6cccc(F)c6C)N=C(c6nccs6)N5)CCN4C3=O)(C1)C2 [Compound 44, Ethyl (S)-6-(((8S,8aR)-2-(3-(2-Ethoxy-2-Oxoethyl)Bicyclo[1.1.1]Pentan-1-Yl)-8-(Methoxymethyl)-3-Oxohexahydroimidazo[1,5-a]Pyrazin-7(1H)-Yl)Methyl)-4-(3-Fluoro-2-Methylphenyl)-2-(Thiazol-2-Yl)-1,4-Dihydropyrimidine-5-Carboxylate] | 183 nM | > 50 µM
4 | CCOC(=O)C1=C(CN2CCN3C(=O)N(C45CC(NS(=O)(=O)C6CC6)(C4)C5)C[C@@H]3C2)NC(c2nccs2)=N[C@H]1c1cccc(F)c1C [Compound 29, Ethyl (S)-6-(((S)-2-(3-(Cyclopropanesulfonamido)Bicyclo[1.1.1]Pentan-1-Yl)-3-Oxohexahydroimidazo[1,5-a]Pyrazin-7(1H)-Yl)Methyl)-4-(3-Fluoro-2-Methylphenyl)-2-(Thiazol-2-Yl)-1,4-Dihydropyrimidine-5-Carboxylate] | 6 nM | > 50 µM
5 | CCOC(=O)C1=C(CN2CCN3C(=O)N(C45CCC(C(=O)O)(C4)C5)C[C@@H]3C2)NC(c2nccs2)=N[C@H]1c1cccc(F)c1C [Compound 56, 4-((S)-7-(((S)-5-(Ethoxycarbonyl)-6-(3-Fluoro-2-Methylphenyl)-2-(Thiazol-2-Yl)-3,6-Dihydropyrimidin-4-Yl)Methyl)-3-Oxohexahydroimidazo[1,5-a]Pyrazin-2(3H)-Yl)Bicyclo[2.1.1]Hexane-1-Carboxylic Acid] | 16 nM | > 50 µM
6 | CCOC(=O)C1=C(CN2CCN3C(=O)N(C45CCC(C(=O)O)(C4)C5)C[C@@H]3C2)NC(c2nccs2)=N[C@H]1c1ccc(F)cc1Cl [Compound 57, 4-((S)-7-(((R)-6-(2-Chloro-4-Fluorophenyl)-5-(Ethoxycarbonyl)-2-(Thiazol-2-Yl)-3,6-Dihydropyrimidin-4-Yl)Methyl)-3-Oxohexahydroimidazo[1,5-a]Pyrazin-2(3H)-Yl)Bicyclo[2.1.1]Hexane-1-Carboxylic Acid] | 12 nM | > 50 µM
7 | CCOC(=O)C1=C(CN2CCN3C(=O)N(C45CC(COC)(C4)C5)C[C@@H]3[C@@H]2C(=O)O)NC(c2nccs2)=N[C@H]1c1cccc(F)c1C [Compound 48, (8R,8aR)-7-(((S)-5-(Ethoxycarbonyl)-6-(3-Fluoro-2-Methylphenyl)-2-(Thiazol-2-Yl)-3,6-Dihydropyrimidin-4-Yl)Methyl)-2-(3-(Methoxymethyl)Bicyclo[1.1.1]Pentan-1-Yl)-3-Oxooctahydroimidazo[1,5-a]Pyrazine-8-Carboxylic Acid] | 15 nM | > 50 µM
8 | CCOC(=O)C1=C(CN2CCN3C(=O)N(C45CC(CO)(C4)C5)C[C@@H]3C2)NC(c2nccs2)=N[C@H]1c1cccc(F)c1C [Compound 2, Ethyl (S)-4-(3-Fluoro-2-Methylphenyl)-6-(((S)-2-(3-(Hydroxymethyl)Bicyclo[1.1.1]Pentan-1-Yl)-3-Oxohexahydroimidazo[1,5-a]Pyrazin-7(1H)-Yl)Methyl)-2-(Thiazol-2-Yl)-1,4-Dihydropyrimidine-5-Carboxylate] | 3 nM | > 50 µM
9 | CCOC(=O)C1=C(CN2CCN3C(=O)N(C45CCC(C(=O)O)(CC4)CC5)C[C@@H]3C2)NC(c2nccs2)=N[C@H]1c1cccc(F)c1C [Compound 52, 4-((S)-7-(((S)-5-(Ethoxycarbonyl)-6-(3-Fluoro-2-Methylphenyl)-2-(Thiazol-2-Yl)-3,6-Dihydropyrimidin-4-Yl)Methyl)-3-Oxohexahydroimidazo[1,5-a]Pyrazin-2(3H)-Yl)Bicyclo[2.2.2]Octane-1-Carboxylic Acid] | 3 nM | > 50 µM
10 | CCOC(=O)C1=C(CN2CCN3C(=O)N(CC45CC(C(=O)O)(C4)C5)C[C@@H]3C2)NC(c2nccs2)=N[C@H]1c1cccc(F)c1C [Compound 5, 3-(((S)-7-(((S)-5-(Ethoxycarbonyl)-6-(3-Fluoro-2-Methylphenyl)-2-(Thiazol-2-Yl)-3,6-Dihydropyrimidin-4-Yl)Methyl)-3-Oxohexahydroimidazo[1,5-a]Pyrazin-2(3H)-Yl)Methyl)Bicyclo[1.1.1]Pentane-1-Carboxylic Acid] | 73 nM | > 50 µM
11 | CCOC(=O)C1=C(CN2CCN3C(=O)N(C45CC(NS(C)(=O)=O)(C4)C5)C[C@@H]3[C@H]2C(=O)O)NC(c2nccs2)=N[C@H]1c1cccc(F)c1C [Compound 46, (8S,8aR)-7-(((S)-5-(Ethoxycarbonyl)-6-(3-Fluoro-2-Methylphenyl)-2-(Thiazol-2-Yl)-3,6-Dihydropyrimidin-4-Yl)Methyl)-2-(3-(Methylsulfonamido)Bicyclo[1.1.1]Pentan-1-Yl)-3-Oxooctahydroimidazo [1,5-a]Pyrazine-8-Carboxylic Acid] | 61 nM | > 50 µM
12 | CCOC(=O)C1=C(CN2CCN3C(=O)N(C45CC(CC(=O)O)(C4)C5)C[C@@H]3C2)NC(c2nccs2)=N[C@H]1c1ccc(F)cc1C [Compound 37] | 18 nM | > 50 µM
13 | CCOC(=O)C1=C(CN2CCN3C(=O)N(C45CCC(C(=O)O)(CC4)C5)C[C@@H]3C2)NC(c2nccs2)=N[C@H]1c1cccc(F)c1C [Compound 59, 4-((S)-7-(((S)-5-(Ethoxycarbonyl)-6-(3-Fluoro-2-Methylphenyl)-2-(Thiazol-2-Yl)-3,6-Dihydropyrimidin-4-Yl)Methyl)-3-Oxohexahydroimidazo[1,5-a]Pyrazin-2(3H)-Yl)Bicyclo[2.2.1]Heptane-1-Carboxylic Acid] | 12 nM | > 50 µM
14 | CCOC(=O)C1=C(CN2CCN3C(=O)N(C45CC(C(=O)O)(C4)C5)C[C@@H]3C2)NC(c2nccs2)=N[C@H]1c1cccc(F)c1C [Compound 1, 3-((S)-7-(((S)-5-(Ethoxycarbonyl)-6-(3-Fluoro-2-Methylphenyl)-2-(Thiazol-2-Yl)-3,6-Dihydropyrimidin-4-Yl)Methyl)-3-Oxohexahydroimidazo[1,5-a]Pyrazin-2(3H)-Yl)Bicyclo[1.1.1]Pentane-1-Carboxylic Acid] | 33 nM | > 50 µM
15 | CCOC(=O)C1=C(CN2CCN3C(=O)N(C45CCC(C(=O)O)(CC4)CC5)C[C@@H]3C2)NC(c2nccs2)=N[C@H]1c1ccc(F)cc1Cl [Compound 55, 4-((S)-7-(((R)-6-(2-Chloro-4-Fluorophenyl)-5-(Ethoxycarbonyl)-2-(Thiazol-2-Yl)-3,6-Dihydropyrimidin-4-Yl)Methyl)-3-Oxohexahydroimidazo[1,5-a]Pyrazin-2(3H)-Yl)Bicyclo[2.2.2]Octane-1-Carboxylic Acid] | 2 nM | > 50 µM
16 | CCOC(=O)C1=C(CN2CCN3C(=O)N(C45CC(N(C)CC(=O)O)(C4)C5)C[C@@H]3C2)NC(c2nccs2)=N[C@H]1c1cccc(F)c1C [Compound 49, N-(3-((S)-7-(((S)-5-(Ethoxycarbonyl)-6-(3-Fluoro-2-Methylphenyl)-2-(Thiazol-2-Yl)-3,6-Dihydropyrimidin-4-Yl)Methyl)-3-Oxohexahydroimidazo[1,5-a]Pyrazin-2(3H)-Yl)Bicyclo[1.1.1]Pentan-1-Yl)-N-Methylglycine] | 17 nM | > 50 µM
17 | CCOC(=O)C1=C(CN2CCN3C(=O)N(C45CC(C(=O)NS(C)(=O)=O)(C4)C5)C[C@@H]3C2)NC(c2nccs2)=N[C@H]1c1cccc(F)c1C [Compound 28, Ethyl (S)-4-(3-Fluoro-2-Methylphenyl)-6-(((S)-2-(3-((Methylsulfonyl)Carbamoyl)Bicyclo[1.1.1]Pentan-1-Yl)-3-Oxohexahydroimidazo[1,5-a]Pyrazin-7(1H)-Yl)Methyl)-2-(Thiazol-2-Yl)-1,4-Dihydropyrimidine-5-Carboxylate] | 21 nM | > 50 µM
18 | CCOC(=O)C1=C(CN2CCN3C(=O)N(C45CC(C#N)(C4)C5)C[C@@H]3C2)NC(c2nccs2)=N[C@H]1c1cccc(F)c1C [Compound 17, Ethyl (S)-6-(((S)-2-(3-Cyanobicyclo[1.1.1]Pentan-1-Yl)-3-Oxohexahydroimidazo[1,5-a]Pyrazin-7(1H)-Yl) Methyl)-4-(3-Fluoro-2-Methylphenyl)-2-(Thiazol-2-Yl)-1,4-Dihydropyrimidine-5-Carboxylate] | 5 nM | > 50 µM
